Results as given in article PMC11243638, “Enhanced Antioxidant, Anti-Aging, Anti-Tyrosinase, and Anti-Inflammatory Properties of Vanda coerulea Griff. Ex Lindl. Protocorm through Elicitations with Chitosan” (Plants, 2024).
Marks after values point to notes of the source that are not given here.

Assays:
[1] = target: collagenase from Clostridium histolyticum; test: Collagenase (MMP-1) inhibition, spectrophotometric assay with FALGPA; type: biochemical; details: mean ± SD, triplicate; ND = not determined due to low potency
Protocol: The capability of the extracts derived from the adult V. coerulea plant and its protocorms to inhibit the MMP-1 activities was evaluated through a spectrophotometric assay, which was modified from the methods described by Thring et al. (2009). Initially, an MMP-1 solution at a concentration of 0.1 units/mL was prepared, comprising MMP-1 sourced from C. histolyticum, along with 400 mM NaCl, 10 mM CaCl2, and 50 mM tricine buffer pH 7.5. Subsequently, 20 µL of the sample solution was combined with 20 µL of the MMP-1 solution and 80 µL of Tricine buffer pH 7.5. […] Immediately, the absorbance was measured kinetically at 340 nm for a duration of 20 min using a multimode microplate reader (BMG Labtech GmbH, Ortenberg, Germany). The findings were then expressed as the percentage of MMP-1 inhibition, calculated according to the subsequent equation:MMP-1 inhibition (%) = [(a − b)/a] × 100,(3) where a is the reaction rate of the combination without a sample, while b is the reaction rate of the combination with a sample. Various concentrations of each extract were evaluated, and their MMP-1 inhibitions were plotted against their logarithmic concentrations to generate dose–response curves. The IC50 values were calculated from the curves using GraphPad Prism (version 8.0.2, GraphPad Software, Boston, MA, USA). […]

[2] = target: T1, porcine pancreatic elastase (Sus scrofa, UniProt P00772); test: Elastase inhibition, spectrophotometric assay; type: biochemical; details: mean ± SD, triplicate; ND = not determined due to low potency
T1 construct: purchased Sigma-Aldrich; host or cells: porcine pancreas
T1 sequence (P00772 27-266): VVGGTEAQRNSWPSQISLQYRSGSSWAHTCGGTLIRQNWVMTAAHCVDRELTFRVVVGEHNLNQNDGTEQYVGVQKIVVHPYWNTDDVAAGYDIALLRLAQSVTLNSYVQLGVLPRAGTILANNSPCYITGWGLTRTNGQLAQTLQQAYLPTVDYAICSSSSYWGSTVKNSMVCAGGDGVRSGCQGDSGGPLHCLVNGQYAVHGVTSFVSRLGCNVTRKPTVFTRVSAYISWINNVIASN
Protocol: The capability of the extracts derived from the adult V. coerulea plant and its protocorms to inhibit elastase activities was evaluated through a spectrophotometric assay, which was modified from the methods described by Thring et al. (2009). Initially, an elastase solution at a concentration of 0.03 units/mL was prepared, comprising elastase sourced from porcine pancreas, along with 0.2 M Tris-HCl buffer pH 8.0. Subsequently, 10 µL of the sample solution was combined with 40 µL of the elastase solution. After the resulting mixture was incubated for 15 min at ambient temperature, 100 µL of 1.6 mM AAAVPN in tris HCl buffer pH 8.0 was introduced to initiate the enzymatic reaction. Immediately, the absorbance was measured kinetically at 410 nm for a duration of 20 min using a multimode microplate reader (BMG Labtech GmbH, Ortenberg, Germany). […] Various concentrations of each extract were evaluated, and their elastase inhibitions were plotted against their logarithmic concentrations to generate dose–response curves. The IC50 values were calculated from the curves using GraphPad Prism (version 8.0.2, GraphPad Software, Boston, MA, USA). […] was used as the positive control. The analysis was performed in triplicate.

[3] = DPPH radical scavenging assay; type: biochemical; details: mean ± SD, triplicate; ND = not determined due to low potency
Protocol: The capability of the extracts derived from the adult V. coerulea plant and its protocorms to scavenge DPPH radicals was evaluated through a DPPH assay, which was modified from the methods described by Brem et al. (2004). Initially, 20 µL of the sample solution was combined with 180 µL of a DPPH solution, prepared by dissolving […] DPPH in DI water. After incubating the resulting mixture in darkness at room temperature for 30 min, the absorbance was measured at 520 nm using a multimode microplate reader (BMG Labtech GmbH, Ortenberg, Germany). […] Various concentrations of each extract were evaluated, and their DPPH inhibitions were plotted against their logarithmic concentrations to generate dose–response curves. […] L-ascorbic acid was used as the positive control. The analysis was performed in triplicate.

[4] = Ferric-reducing antioxidant power (FRAP) assay; type: biochemical; details: mean ± SD, triplicate
Protocol: The capability of the extracts derived from the adult V. coerulea plant and its protocorms to reduce ferric was evaluated through a FRAP assay, which was modified from the methods described by Saeio et al. (2011). Initially, 20 µL of the sample solution was combined with 180 µL of the FRAP solution, prepared by mixing 0.3 M acetate buffer pH 3.6, 10 mM TPTZ in 40 mM HCl solution and 20 mM ferric chloride solution. After incubating the resulting mixture at room temperature for 5 min, the absorbance was measured at 595 nm using a multimode microplate reader (BMG Labtech GmbH, Ortenberg, Germany). The findings were then expressed as the percentage of ferric reducing ability, calculated according to the subsequent equation:Ferric reducing abilities (%) = [(a − b)/a] × 100,(2) where a is the UV absorbance of the combination without a sample, while b is the UV absorbance of the combination with a sample. Various concentrations of each extract were evaluated, and their ferric reducing abilities were plotted against their logarithmic concentrations to generate dose–response curves. […] L-ascorbic acid was used as the positive control. The analysis was performed in triplicate.

[5] = tested on: chorioallantoic membrane of fertilized hen eggs; test: Hen's egg-chorioallantoic membrane (HET-CAM) irritation test; details: 1% w/v, positive control
Protocol: The irritation potency of the extracts derived from the adult V. coerulea plant and its protocorms was evaluated through a HET-CAM test, which was previously described by Luepke and Kemper (1986). The fertilized black hen eggs from the Pradu Hang Dam Chiang Mai breed aged between 7 and 9 days were used in the HET-CAM test. As the embryos were in the early stages of development, ethical approval was not required. Typically, hen eggs require 21 days of incubation, and the fertilized eggs aged between 7 to 9 days, which was less than halfway through their incubation cycle, were not considered animals. Prior to the test, the eggshell above the air cell was cracked open, and the inner membrane was moistened with a normal saline solution. […] The duration until the first appearance of each irritation sign was meticulously monitored and recorded in seconds, which enabled the subsequent computation of the irritation score (IS) using the following equation:IS = [(301 − t(h))/300] × 5 + [(301 − t(l))/300] × 7 + [(301 − t(c))/300] × 9,(8) where t(h) is the time of the first appearance of hemorrhage in seconds, t(l) is the time of the first appearance of vascular lysis in seconds, and t(c) is the first appearance of vascular coagulation in seconds. […]

Row | SMILES | IC50 Collagenase Inhibition [1] | IC50 Elastase Inhibition [2] | IC50 DPPH Inhibition [3] | IC50 Ferric Reducing Capacity [4] | IC50 [2] | Irritation Level [5] | Irritation Score (IS) [5]
1 | O=C(O[C@@H]1Cc2c(O)cc(O)cc2O[C@@H]1c1cc(O)c(O)c(O)c1)c1cc(O)c(O)c(O)c1 [EGCG, epigallocatechin gallate] | 16.9 ± 3.2 ^b µg/mL | 0.1 ± 0.0 ^a µg/mL | – | – | – | – | –
2 | C[C@@H]1O[C@@H](OC[C@H]2O[C@@H](Oc3c(-c4ccc(O)c(O)c4)oc4cc(O)cc(O)c4c3=O)[C@H](O)[C@@H](O)[C@@H]2O)[C@H](O)[C@H](O)[C@H]1O [RT, rutin] | 7.6 ± 3.4 ^a µg/mL | – | 3.2 ± 2.7 ^a µg/mL | 12.9 ± 2.0 ^b µg/mL | 17.2 µM | – | –
3 | CCCCCCCCCCCCOS(=O)(=O)[O-].[Na+] [SLS, sodium lauryl sulfate] | – | – | – | – | – | Severe irritation (9.0–21.0 for severe irritation) | 15.13 ± 0.3
4 | O=C1O[C@H]([C@@H](O)CO)C(O)=C1O [AS, ascorbic acid] | – | – | 3.5 ± 2.9 ^a µg/mL | 2.4 ± 0.7 ^a µg/mL | – | – | –
